Reference: patent publication US11771086B2, “Pest control composition including novel iminopyridine derivative” (priority 2012, dated 2023)
“And” between values parts separate entries of the source, which are not always exact repeats. Equal entries are not always repeated. Where two headings read alike, the source gives them in different places.

Legend:
[1] = system: Plutella xylostella; experiment: Reference Test Example 1 Pest control test of Plutella xylostella (foliar treatment, single agent); assay type: in vivo; details: Plutella xylostella, foliar, 72 h
From the text: (§1) After an air drying process, second instar larvae were released thereto. […] Test in duplicate.

[2] = system: Spodoptera litura; experiment: Reference Test Example 2 Pest control test of Spodoptera litura (foliar treatment, single agent); assay type: in vivo; details: 72 h
From the text: After an air drying process, third instar larvae were released thereto. […] Test in duplicate.

[3] = system: Aphis gossypii; experiment: Reference Test Example 3 Pest control test of Aphis gossypii (foliar treatment, single agent); assay type: in vivo; details: Aphis gossypii, foliar, 72 h
Method: After an air drying process, first instar larvae were released thereto. Thereafter, the larvae were left to stand in a thermostatic chamber (16 hours of light period-8 hours of dark period) at 25° C. […] Test in duplicate. Mortality (%)={number of dead larvae/(number of survived larvae+number of dead larvae)}×100

[4] = system: Nilaparvata lugens; experiment: Reference Test Example 5 Pest control test of Nilaparvata lugens (foliar treatment, single agent); assay type: in vivo; details: 144 h
From the text: as §1

[5] = system: Trialeurodes vaporariorum; experiment: Reference Test Example 8 Pest control test of Trialeurodes vaporariorum (leaf disk spray on eggs); assay type: in vivo; details: foliar
From the text: Adult greenhouse whiteflies were released to a cucumber in pot culture and allowed to lay eggs overnight. […] Test in duplicate. Mortality of larvae (%)={(number of eggs laid−number of survived larvae)/number of eggs laid)}×100

[6] = system: Lissorhoptrus oryzophilus; experiment: Reference Test Example 17 Pest control test of Lissorhoptrus oryzophilus (soil drench, single agent); assay type: in vivo; details: throughput of 0.1 mg/seedling, adults, three days after the release
From the text: Two days after the treatment, five adults of Lissorhoptrus oryzophilus were each released thereto. […] Test in duplicate.

[7] = system: Nilaparvata lugens resistant population I; experiment: Reference Test Example 19 Pest control test of Nilaparvata lugens, resistant population I (soil drench); assay type: in vivo; details: for Insecticidal effects against Nilaparvata lugens (death rate %), Resistant population I: soil drench, six days
Method: (§2) Three days after the treatment, ten second instar larvae of Nilaparvata lugens, which had been collected outdoors and proliferated indoors, were each released to the rice seedling. […] Test in duplicate.
(§3) Furthermore, for comparison, the test against a species of Nilaparvata lugens which is highly susceptible to imidacloprid was performed by the same method as described above, and the results thereof are shown in Table 45. […] Meanwhile, the death rates of imidacloprid at 0.05 mg/seedling were (susceptible species) 100%, (resistant population I) 38% and (resistant population II) 69%, and the insecticidal effect thereof was also low even at a high dose. From the above results, it became obvious that Compound P212 and Compound 1-20 have high insecticidal effects even against Nilaparvata lugens resistance against imidacloprid.
(§4) Further, for the origin of test pests, bugs collected outdoors from the Kumamoto prefecture (I) in 2007 and from the Fukuoka prefecture (II) in 2005 as resistant population of Nilaparvata lugens, and bugs collected from the Kagoshima prefecture and then successively reared indoors for a long time as the imidacloprid susceptible population of Nilaparvata lugens were used.

[8] = system: Nilaparvata lugens resistant population II; experiment: Reference Test Example 19 Pest control test of Nilaparvata lugens, resistant population II (soil drench); assay type: in vivo; details: for Insecticidal effects against Nilaparvata lugens (death rate %), Resistant population II: soil drench, six days
Method: as §2, §3, §4

[9] = system: Laodelphax striatella; experiment: whole plant or invertebrate; assay type: in vivo
Method: (§5) After an air drying process, second instar larvae were released thereto. […] The test was performed in duplicate.
(§6) Method for Judging Synergistic Effects

[10] = system: Plutella xylostella; experiment: whole plant or invertebrate; assay type: in vivo
Method: as §5, §6

[11] = system: Aphis gossypii; experiment: whole plant or invertebrate; assay type: in vivo; details: Aphis gossypii
Method: The test was performed in duplicate.
as §6

[12] = system: Spodoptera litura; experiment: whole plant or invertebrate; assay type: in vivo; details: Spodoptera litura
Method: After an air drying process, third instar larvae were released thereto. […] The test was performed in duplicate.
as §6

[13] = system: Frankliniella occidentalis; experiment: whole plant or invertebrate; details: Frankliniella occidentalis
Method: After an air drying process, first instar larvae were released thereto. Thereafter, the larvae were left to stand in a thermostatic chamber (16 hours of light period-8 hours of dark period) at 25° C. […] The test was performed in duplicate. Mortality of larvae (%)={number of dead larvae/(number of survived larvae+number of dead larvae)}×100
(A: 100−(mortality of larvae or adults when treated only with Compound P212)
B: 100−(mortality of larvae or adults when treated with only the insecticide imidacloprid, dinotefuran, or acetamiprid))
as §6
When the mortality against Frankliniella occidentalis in the case of a mixture with another agent exceeded the theoretical value given by Colby's equation, a synergistic effect was judged to be present.

[14] = system: Chilo suppressalis; assay type: in vivo; details: for Theoretical value by Colby's equation: Chilo suppressalis; for Mortality of single agent against Chilo suppressalis: soil irrigation, six days after release
Method: After standing for 3 days, second instar larvae were released thereto. […] The test was performed in duplicate.
as §6

[15] = system: Naranga aenescens; assay type: in vivo
Method: After standing for 3 days, first instar larvae were released thereto. […] The test was performed in duplicate.
as §6

[16] = system: Callosobruchus chinensis; assay type: in vivo
Method: A compound of Formula (I) and the insecticide indicated below, prepared in predetermined concentrations using acetone, were separately topically applied to the back of the same adult Callosobruchus chinensis. […] The test was performed in duplicate. Insect mortality (%)={number of dead insects/(number of survived insects+number of dead insects)}×100
(A: 100−(insect mortality for treatment with only Compound P212)
B: 100−(insect mortality for treatment with only the insecticide fipronil or imidacloprid))
as §6

[17] = system: Rhizoctonia solani; experiment: Test Example 12 Test of control of rice sheath blight (Rhizoctonia solani); assay type: in vivo; details: single agent 50 ppm; foliar spray; six days after inoculation
[18] = system: Laodelphax striatellus; experiment: Test Example 14 Test with Laodelphax striatellus by soil irrigation treatment (mixture with paddy herbicide); assay type: in vivo; details: five days after release
Method: After standing for three days, second instar larvae were released thereto. […] The test was performed in duplicate.

[19] = foliar, 72 h, read-out: Mortality of single agent against Frankliniella occidentalis

SMILES: O=C(N=c1ccccn1Cc1ccc(Cl)nc1)C(F)(F)F [Compound P212, N-[1-((6-chloropyridin-3-yl)methyl)pyridin-2(1H)-ylidene]-2,2,2-trifluoroacetamide]
- mortality at 100 ppm [1]: ≥ 80%
- mortality at 500 ppm [2]: ≥ 80%
- mortality at 100 ppm [3]: ≥ 80%
- mortality at 100 ppm [4]: ≥ 80%
- mortality at 100 ppm [5]: ≥ 80%
- mortality [6]: ≥ 80%
- death rates of larvae ([7]; resistant population I, 0.005 mg/seedling, six days after the release): 95%
- Insecticidal effects against Nilaparvata lugens (death rate %), Resistant population I ([7]; throughput 0.005 mg/seedling): 95%
- Insecticidal effects against Nilaparvata lugens (death rate %), Resistant population I ([7]; throughput 0.05 mg/seedling): 100%
- death rates of larvae ([8]; resistant population II, 0.005 mg/seedling, six days after the release): 100%
- Insecticidal effects against Nilaparvata lugens (death rate %), Resistant population II ([8]; throughput 0.005 mg/seedling): 100%
- Insecticidal effects against Nilaparvata lugens (death rate %), Resistant population II ([8]; throughput 0.05 mg/seedling): 100%
- Theoretical value by Colby's equation ([9]; Laodelphax striatella foliar, single agent 0.625 ppm (other component 0)): 95%
- mortality at 0.625 ppm ([9]; Laodelphax striatellus, foliar, 72 h, read-out: Mortality of single agent against Laodelphax striatella): 95%
- mortality at 1 ppm ([10]; Plutella xylostella, foliar, 72 h, read-out: Mortality of single agent against Plutella xylostella, single agent 1.0 ppm, cabbage leaf disk spray, three days): 40%
- mortality at 1.25 ppm ([10]; Plutella xylostella, foliar, 72 h, read-out: Mortality of single agent against Plutella xylostella, single agent 1.25 ppm, cabbage leaf disk spray, three days): 0%
- mortality at 2 ppm ([10]; Plutella xylostella, foliar, 72 h, read-out: Mortality of single agent against Plutella xylostella, single agent 2.0 ppm, cabbage leaf disk spray, three days): 60%
- Theoretical value by Colby's equation ([10]; Plutella xylostella, single agent 1.0 ppm (other component 0)): 40% and 30%
- Theoretical value by Colby's equation ([10]; Plutella xylostella, single agent 1.25 ppm (other component 0)): 0%
- Theoretical value by Colby's equation ([10]; Plutella xylostella, single agent 2.0 ppm (other component 0)): 60% and 50%
- Mortality of single agent against Plutella xylostella ([10]; single agent 1.0 ppm, cabbage leaf disk spray, three days): 30%
- Mortality of single agent against Plutella xylostella ([10]; single agent 2.0 ppm, cabbage leaf disk spray, three days): 50%
- mortality at 0.313 ppm ([11]; foliar, 72 h, read-out: Mortality of single agent against Aphis gossypii): 45%
- Theoretical value by Colby's equation ([11]; single agent 0.313 ppm (other component 0)): 45%
- mortality at 50 ppm ([12]; foliar, 72 h, read-out: Mortality of single agent against Spodoptera litura, single agent 50 ppm, cabbage leaf disk spray, three days): 10%
- Theoretical value by Colby's equation ([12]; single agent 50 ppm (other component 0)): 10%
- mortality at 10 ppm [13, 19]: 69%
- mortality at 20 ppm [13, 19]: 70%
- Theoretical value by Colby's equation ([13]; single agent 10 ppm (other component 0)): 69%
- Theoretical value by Colby's equation ([13]; single agent 20 ppm (other component 0)): 70%
- Theoretical value by Colby's equation ([14]; single agent 0.002 mg/seedling (other component 0)): 40%
- Theoretical value by Colby's equation ([14]; single agent 0.01 mg/seedling (other component 0)): 33%
- Mortality of single agent against Chilo suppressalis ([14]; single agent 0.002 mg/seedling): 40%
- Mortality of single agent against Chilo suppressalis ([14]; single agent 0.01 mg/seedling): 33%
- Theoretical value by Colby's equation ([15]; Naranga aenescens, single agent 0.01 mg/seedling (other component 0)): 60%
- Mortality of single agent against Naranga aenescens ([15]; single agent 0.01 mg/seedling, soil irrigation, five days after release): 60%
- Theoretical value by Colby's equation ([16]; Callosobruchus chinensis, single agent 0.2 ng/head (other component 0)): 20%
- Mortality of single agent against Callosobruchus chinensis ([16]; single agent 0.2 ng/head, topical, one day): 20%
- Preventive value (Sheath blight test, lesion height) [17]: 14 and 9
- Mortality of larvae (Laodelphax striatellus) ([18]; single agent 0.005 mg/seedling): 0%
- Mortality of larvae (Laodelphax striatellus) ([18]; single agent 0.01 mg/seedling): 100%
